Legend:
[1] = test system: C8161 human melanoma cells; assay: Cell cycle analysis (propidium iodide flow cytometry); format: cell-based; details: for Sub G1: 8 Gy, 25 uM riluzole, average of 3 experiments
Experimental: Cell pellets were fixed by drop-wise addition of ice-cold 70% ethanol and incubated overnight at 4° C. Fixed cells were washed twice with ice-cold PBS and resuspended in […] PBS. […] The experiment was repeated 3 times.

U87MG glioma cells = assay: Western immunoblot for cleaved PARP; format: cell-based; details: riluzole 10, 25 or 50 μM for 4 days versus NT or vehicle
U118MG cell line = assay: Western immunoblot for cleaved PARP; format: cell-based; details: experiments repeated as for U87MG
LN229 cell line = assay: Western immunoblot for cleaved PARP; format: cell-based; details: experiments repeated as for U87MG
D3-vec cells = assay: Immunofluorescence for 53BP1 and γ-H2AX foci in apoptosis-deficient cells; format: cell-based, mouse; details: empty vector controls; treated for various time points up to 24 hours
Text: (§1) These treated cells were stained with γ-H2AX and 53BP1, both known to localize at sites of DNA double stranded breaks.

D3-mGRM1 cells = assay: as above; format: cell-based, mouse; details: treated for various time points up to 24 hours
Text: as §1

C8161 xenografts [2] = assay: Murine xenograft model, cleaved caspase-3 immunohistochemistry; format: in vivo, nude mice
Experimental: hGRM-positive C8161 cells (1×10^6) were injected into the flanks of 6-week-old nude mice (Taconic). […] At 24, 48, and 72 hours after the second dose of irradiation, mice in each group were sacrificed and tumor samples were removed. Half of the samples were snap-frozen for further molecular studies, and the other half was fixed in formalin for histologic analysis. The antibody to activated caspase-3 was utilized to visualize apoptotic cells. The average number of apoptotic cells per tumor was calculated by counting the apoptotic cells in 10 random highpowered fields.
Cleaved caspase-3 immunohistochemistry. Immunodeficient nude mice were purchased from Taconic. C8161 cells were injected into flanks bilaterally at 10^6 cells per site. Tumor size was measured with a vernier caliper. When tumor volumes reached 6 to 10 mm^3 the mice were randomly grouped into various treatments. Each treatment group consisted of 10 mice. […] At 24, 48, and 72 hours after the second dose of irradiation, mice in each group were sacrificed and tumor samples were removed. Half of the samples were snap-frozen for further molecular studies, and the other half was fixed in formalin for histologic analysis. The antibody to activated caspase-3 was utilized to visualize apoptotic cells.

U87MG cells = assay: ROS measurement by flow cytometry (2′,7′-dichlorodihydrofluorescein diacetate); format: cell-based; details: 10 uM riluzole for various time periods versus vehicle
Experimental: (§2) The cells were incubated with 2′,7′-dichlorodihydrofluorescein diacetate (Sigma) for 20 min at 37 deg.

LN229 cells = assay: as above; format: cell-based; details: 10 uM riluzole for various time periods versus vehicle
Experimental: as §2

[3] = test system: C8161 hGRM1-positive human melanoma cells; details: riluzole plus irradiation (2 or 4 Gy) compared with irradiation alone
Experimental: Both sets of cells were irradiated at 2 or 4 Gy. Lysates were made at 24, 48, or 72 hours after irradiation. Protein lysates were prepared by washing cells with PBS, adding extraction buffer [50 mmol/L Tris, 150 mmol/L NaCl, 1 mmol/L EDTA (pH 8.0)], 1% NP40, 5% glycerol, 1 mmol/L Dithiothreitol, complete protease inhibitor cocktail (Roche), and phosphatase inhibitors I and II (Sigma). The samples were resolved in 10% gels (Bio-Rad), after which they were transferred onto nitrocellulose membranes. Membranes were blocked with 5% milk and 1% bovine serum albumin and then probed with antibodies against PARP and cleaved caspase-3. The same blot was probed with alpha-tubulin to show equal loading.
Cells were either treated with IR at 2 Gy (2) or 4 GY (4) or not treated (0). Lysates were made immediately after IR or at 24 hours after IR and probed with anti-PARP and anticleaved PARP antibodies to assess apoptotic cells. The same blot was probed with a-tubulin to show equal loading.

glioma cells = assay: γ-H2AX Western blot and γ-H2AX/53BP1 immunofluorescence; format: cell-based
C8161 xenografts [4] = test system: C8161 xenografts
Experimental: Immunodeficient nude mice were purchased from Taconic. C8161 cells were injected into flanks bilaterally at 10^6 cells per site.

[5] = test system: hGRM1-positive C8161 human melanoma cells; details: riluzole for 24 hours, then ionizing radiation; PE=12%
Experimental: (§3) hGRM1-expressing C8161 [wild type (wt) for RAS and BRAF] and UACC903 (wt for RAS, mutated B-RAF, V600E) human melanoma cell line and hGRM1-negative melanoma cell line UACC930 (wt for RAS, mutated B-RAF, V600E), were obtained from Dr. Mary J. C. Hendrix (Children's Memorial Research Center, Chicago, IL) and Dr. Jeffrey M. Trent (Translational Genomics Research Center, Phoenix, AZ), respectively. Cells were cultured in monolayer at 37° C. in a 5% CO2 humidified incubator, in RPMI (InVitrogen) supplemented with 10% fetal bovine serum (Sigma).
(§4) Cells were trypsinized for retrieval and plated on 100-mm plates and allowed to attach overnight for 20 hours. […] Cells were irradiated by a Gamma Cell 40 Exactor (MDS Nordion) irradiator and then incubated overnight (20 hours). Drug was aspirated and culture media replaced at 20 hours. Plates were then monitored for 10 to 21 days and stained with crystal violet for visual counting. Colonies which contained more than 50 cells were scored as clonogenic survivors.
(§5) All clonogenic assays and cell cycle analyses experiments were repeated 3 times and the triplicate results are shown.

[6] = test system: hGRM1-positive UACC903 human melanoma cells; details: riluzole for 24 hours, then ionizing radiation; PE=19%
Experimental: as §3, §4, §5

C=C1C[C@@H]2COC(=O)[C@]2(Cc2ccc3ccccc3c2)C1 [BAY 36-7620]
G2/M synchronization ([1]; treatment of C8161 cells with the compound): no G2/M synchronization

Nc1nc2ccc(OC(F)(F)F)cc2s1 [Riluzole, riluzole]
levels of cleaved PARP (U87MG glioma cells): higher levels of cleaved PARP | levels of cleaved PARP (U118MG cell line): identical results | levels of cleaved PARP (LN229 cell line): identical results | 53BP1 and γ-H2AX foci (DNA double stranded breaks) (D3-vec cells): not vector controls | 53BP1 and γ-H2AX foci (DNA double stranded breaks) (D3-mGRM1 cells): induction of clear nuclear 53BP1 and γ-H2AX foci | Sub G1 ([1]; Radiation followed by Riluzole): 24.91 | Sub G1 ([1]; Riluzole followed by Radiation): 3.59 | G2/M fraction ([1]; cells treated with riluzole prior to irradiation): clear spike in the G2/M fraction | G2/M fraction ([1]; reverse sequence (irradiation before riluzole)): no such effect | number of apoptotic tumor cells (immunohistochemistry) (C8161 xenografts [2]; riluzole 10 mg/kg oral gavage plus 2 x 4 Gy irradiation versus irradiation alone or control groups, P<0.001): significant increase | number of apoptotic tumor cells (immunohistochemistry) (C8161 xenografts [2]; riluzole plus irradiation versus riluzole alone, 24- and 48-hour time points, P<0.01): significant difference | ROS (oxidation of fluorochrome fluorescence) (U87MG cells): enhanced ROS | ROS (oxidation of fluorochrome fluorescence) (LN229 cells): enhanced ROS | levels of cleaved PARP [3]: further augmented levels of cleaved PARP | co-localization of γ-H2AX and 53BP1 (immunofluorescence) (glioma cells): Co-localization was demonstrated | γ-H2AX Western blot (DNA damage) (glioma cells; cell lysates): caused DNA damage | effect of the combination on growth of xenografts (C8161 xenografts [4]; riluzole (10 mg/kg) plus IR, 25 days of treatment): at least an additive effect | DNA damage as measured by foci of gH2AX on immunohistochemistry (C8161 xenografts [4]; xenograft harvests, riluzole plus irradiation): markedly enhanced DNA damage | dose-modifying factor (DMF) [5]: 1.48 | dose-modifying factor (DMF) [6]: 1.30

From patent publication US12318449B2 (Rutgers, The State University of New Jersey, priority 2012, dated 2025)
